From US20210186973A1, “COMBINATION OF RIBOCICLIB AND DABRAFENIB FOR TREATING OR PREVENTING CANCER” (NOVARTIS AG, priority 2015, published 2021)
“Also recorded” adds a separate entry of the source.

Key:
Assay type in all cases: cell-based
[1] = system: 6 B-Raf mutant colorectal cancer cell lines; experiment: Cell proliferation over the panel of 6 cell lines; conditions: single agent
Procedure: (§1) The compounds were dissolved in 100% DMSO (Sigma, Catalog number D2650) at concentrations of 20 mM and stored at −20° C. until use. Compounds were arrayed in drug master plates (Greiner, Catalog number 788876) and serially diluted 3-fold (7 steps) at 2000× concentration.
(§2) Colorectal cancer cell lines used for this study were obtained, cultured and processed from commercial vendors ATCC, CellBank Australia, and HSRRB (Table 1). All cell line media were supplemented with 10% FBS (HyClone, Catalog number SH30071.03). […]
(§3) Cell lines were cultured in 37° C. and 5% CO2 incubator and expanded in T-75 flasks. In all cases cells were thawed from frozen stocks, expanded through ≥1 passage using 1:3 dilutions, counted and assessed for viability using a ViCell counter (Beckman-Coulter) prior to plating. […] All cell lines were determined to be free of mycoplasma contamination as determined by a PCR detection methodology performed at Idexx Radil (Columbia, Mo., USA) and correctly identified by detection of a panel of SNPs.
(§4) Images were analyzed after adapting previously described methods (Horn, Sandmann et al. 2011) and using the Bioconductor package EBImage in R (Pau, Fuchs et al. 2010). Objects in both channels, DAPI (for Hoechst/DNA) and FITC (for Caspase 3/7), were segmented separately by adaptive thresholding and counted. […]

RKO = experiment: Cell proliferation (cell count by microscopy) in RKO; conditions: Homo sapiens; single agent; RKO (BRAF, PIK3CA); 72 h; 50% of cell counts relative to DMSO
Procedure: as §1, §2, §3, §4

LIM2551 = experiment: Cell proliferation (cell count by microscopy) in LIM2551; conditions: single agent; LIM2551 (BRAF, PIK3CA); 72 h; 50% of cell counts relative to DMSO
Procedure: as §1, §2, §3, §4

OUMS-23 = experiment: Cell proliferation (cell count by microscopy) in OUMS-23; conditions: single agent; OUMS-23 (BRAF); 72 h; 50% of cell counts relative to DMSO
Procedure: as §1, §2, §3, §4

COLO-205 = experiment: Cell proliferation (cell count by microscopy) in COLO-205; conditions: Homo sapiens; single agent; COLO-205 (BRAF); 72 h; 50% of cell counts relative to DMSO
Procedure: as §1, §2, §3, §4

HT-29 = experiment: Cell proliferation (cell count by microscopy) in HT-29; conditions: Homo sapiens; single agent; HT-29 (BRAF, PIK3CA); 72 h; 50% of cell counts relative to DMSO
Procedure: as §1, §2, §3, §4

LS411N = experiment: Cell proliferation (cell count by microscopy) in LS411N; conditions: Homo sapiens, LS-411N; single agent; LS411N (BRAF); 72 h; 50% of cell counts relative to DMSO
Procedure: as §1, §2, §3, §4

IC50s (in words) ([1]; in the PIK3CA mutant cells) | IC50 (COLO-205) [nM] | IC50 (HT-29) [nM] | Compound | IC50 (RKO) [nM] | IC50s (in words) ([1]; all but one cell line (ODMS-23)) | IC50 (LIM2551) [nM] | IC50 (OUMS-23) [nM] | IC50 (LS411N) [nM]
micromolar |  |  | Cc1nc(NC(=O)N2CCC[C@H]2C(N)=O)sc1-c1ccnc(C(C)(C)C(F)(F)F)c1 [BYL719, (S)-Pyrrolidine-1,2-dicarboxylic acid 2-amide 1-({4-methyl-5-[2-(2,2,2-trifluoro-1,1-dimethyl-ethyl)-pyridin-4-yl]-thiazol-2-yl}-amide)] |  |  |  |  | 
 | 7 | 16 | CC(C)(C)c1nc(-c2cccc(NS(=O)(=O)c3c(F)cccc3F)c2F)c(-c2ccnc(N)n2)s1 [Dabrafenib, N-{3-[5-(2-Amino-4-pyrimidinyl)-2-(1,1-dimethylethyl)-1,3-thiazol-4-yl]-2-fluorophenyl}-2,6-difluorobenzenesulfonamide] | 240 | nanomolar to low micromolar; also recorded: nanomolar to sub-micromolar | 18 | > 1000 | 36
